{
  "source": "patent US20160008297A1",
  "about": "“COMPOUNDS FOR PREVENTING, REDUCING AND/OR ALLEVIATING ITCHY SKIN CONDITION(S)” (B.R.A.I.N. Biotechnology Research And Information Network AG, priority 2012, published 2016)",
  "data": [
    {"target": "T1, PAR-2 (Homo sapiens, UniProt P55085)", "T1 construct": "Human embryonic kidney 293 cells (HEK293) endogenously expressing PAR-2; endogenous in cells; host or cells: HEK293", "T1 sequence (P55085 26-397)": "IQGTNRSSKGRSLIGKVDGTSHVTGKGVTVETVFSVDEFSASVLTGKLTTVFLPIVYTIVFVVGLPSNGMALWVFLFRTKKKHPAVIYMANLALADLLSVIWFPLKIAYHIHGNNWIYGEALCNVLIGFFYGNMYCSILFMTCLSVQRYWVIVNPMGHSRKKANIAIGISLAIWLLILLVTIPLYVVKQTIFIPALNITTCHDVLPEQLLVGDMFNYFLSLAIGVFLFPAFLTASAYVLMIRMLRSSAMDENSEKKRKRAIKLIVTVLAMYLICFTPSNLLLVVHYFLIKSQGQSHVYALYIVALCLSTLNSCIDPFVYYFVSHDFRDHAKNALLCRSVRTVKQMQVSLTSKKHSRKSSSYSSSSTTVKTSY", "assay": "Cell-based calcium assay (Fluo-4 AM) for PAR-2 antagonists, SLIGRL-evoked signal", "details": "in the presence of 2 μM SLIGRL, HEK293 cells; read-out: IC50 of PAR-2 antagonism (inhibition of SLIGRL induced PAR-2 activation)", "method": "Cell-based calcium assay for the identification of PAR-2 antagonists based on fluorescent dye Fluo4-AM\nFunctional modulation of PAR-2 by the tested compounds was measured and quantified using the calcium sensitive fluorescent probe Fluo-4 AM on a fluorescence microplate reader. Activation of PAR-2 by an agonist (SLIGRL) led to an increase in the intracellular calcium concentration and thus an increase in fluorescence intensity.\nHuman embryonic kidney 293 cells (HEK293) endogenously expressing PAR-2 were cultured in DMEM (high glucose) supplemented with tetracycline-free FCS (10% v/v), L-glutamine (4 mM), blasticidin (15 μg/ml), zeocin (100 μg/ml) and puromycin (2 μg/ml) in a water-saturated atmosphere at 37° C. and 5% CO2.\nCells were seeded onto 96-well clear-bottom black-walled assay plates at a density of 45,000 cells per well in 100 μl of cell culture medium. Intracellular calcium increase in the living cells due to receptor activation was monitored 24 h later using the calcium sensitive fluorescent probe Fluo-4 AM on a fluorescence microplate reader (FlexStation® system, Molecular Devices). Therefore 100 μl Krebs-HEPES (KH) buffer (118 mM NaCl; 4.7 mM KCl; 1.3 mM CaCl2; 1.2 mM MgSO4; 1.2 mM KH2PO4; 4.2 mM NaHCO3; 10 mM Hepes, pH 7.4) supplemented with sulfinpyrazone (250 μM) and Fluo-4 AM (4 μM) were added and the cells were incubated for an additional hour in a water-saturated atmosphere at 37° C. and 5% CO2.\nMedium was replaced with 150 μl KH buffer supplemented with sulfinpyrazone (250 μM). Subsequently, 50 μl KH buffer supplemented with the screening compounds (final concentration of 10 μM under measurement conditions) or control substances were added and the cells were incubated for 10 min. under assay conditions in the microplate reader. Changes in fluorescence were recorded at 37° C. after addition of 50 μl KH buffer supplemented with the PAR-2 peptide agonist SLIGRL (final concentration of 2 μM under measurement conditions).\nCalcium mobilization was quantified as the change of peak fluorescence (ΔF) over the baseline level (F). The data was analyzed with the software of the microplate reader. Potential PAR-2 antagonists were tested in an effective range of 1-100 μM for their capacity to reduce the SLIGRL-evoked signal.\nA cellular in vitro assay was developed with human embryonic kidney 293 cells (HEK293) endogenously expressing PAR-2. The PAR-2 activating peptide SLIGRL (EC50: ˜0.6 μM) was used as an agonistic stimulus with subsequent Fluo-4 dependent intracellular calcium detection (calcium imaging).", "units": {"IC50": "µM"}, "values": [
      {"smiles": "COc1ccc(CCC(=O)CC(=O)CCc2ccc(OC)cc2)cc1", "note": "[formula 3, 1,7-Bis-(4-methoxyphenyl)-3,5-heptanedione]", "IC50": 67.8},
      {"smiles": "COc1cc(/C=C/C(=O)CC(=O)/C=C/c2ccc(O)c(OC)c2)ccc1O", "note": "[formula 8, 1,7-Bis-(4-hydroxy-3-methoxyphenyl)-hepta-1,6-dien-3,5-dione]", "IC50": "25 to 100"},
      {"smiles": "COc1cc(CCC(=O)CC(=O)CCc2ccc(O)c(OC)c2)ccc1O", "note": "[formula 4, 1,7-Bis-(4-hydroxy-3-methoxyphenyl)-3,5-heptanedione]", "IC50": "25 to 100"},
      {"smiles": "COc1ccc(/C=C/C(=O)CC(=O)/C=C/c2ccc(OC)cc2)cc1", "note": "[formula 7, 1,7-Bis-(4-methoxyphenyl)-hepta-1,6-dien-3,5-dione]", "IC50": "25 to 100"}
    ]}
  ]
}
